Results on 2 molecules are retold here after patent US20230251260A1, “METHODS OF DETERMINING CANCER THERAPY” (YISSUM RESEARCH DEVELOPMENT COMPANY OF THE HEBREW …, priority 2020, published 2023).

The subject of one assay is 4T1 cells. In words: Survival assay (methylene blue) of irradiated 4T1 cells. The assay is classed as cell-based, mouse. To be noted: drugs with RT, beginning 2 days prior to RT until 6 days post-RT.
The test system of the next assay is BR45 PDX. In words: BR45 PDX in NSG mice treated by brachytherapy, tumor growth. The note with it: pretreatment prior to brachytherapy RT (12 Gy and 10 Gy). The assay is classed as in vivo, mouse. From the text:
Mouse models: Syngeneic mouse model: 2.0×10^5 4T1 cells were inoculated subcutaneously on 6-7 weeks old female Balb/c mice. Allogeneic model: BR45 tumors were induced on NSG mice either by injecting 4.0×10^6 cells […] or subcutaneously transplanting xenografts. After reached the desired tumor volume (80-100 mm3), mice were randomly grouped to around 8-10 per cage and treatment were initialized. Tumor sizes were regularly measured with an electronic calliper every two days and their volumes were obtained using the formula V=(W (2)×L)/2. Mice were kept under conventional pathogen-free conditions. All in-vivo experiments were performed with approval of the Hebrew University of Jerusalem IACUC.
Tumor inoculation: 4T1 mouse breast carcinoma mimics stage IV triple negative breast cancer in human. It is highly metastatic to lungs, lymph nodes, liver and bones after implantation in the mammary fat pad of immune-competent Balb/c mice. Primary tumors were harvested after euthanizing female mice using carbon dioxide (CO2) inhalation. Time elapsed from tumor inoculation varied from 2 weeks to 1 month. […]
Drugs were given usually by IP or gavage depending on the drug. […] During this period the tumor volumes were measured regularly to observe the action of the drug. […]

Procedure for 4T1 cells: Survival Analysis: Cells were seeded at 70% confluency and treated as needed for different timepoints. Cells were washed with PBS and fixed with 4% PFA for 10 min. at R.T. The fixed cells were stained with Methylene Blue (MB) for 1 hour at R.T., washed and air dried overnight. The color was extracted with 0.1M HCl for 1 hour at R.T. Absorbance was read at 630 nm.

For `C[C@@H](Oc1cc(-c2cnn(C3CCNCC3)c2)cnc1N)c1c(Cl)ccc(F)c1Cl` [Crizotinib], the “cell survival / sensitization of 4T1 cells to RT” value with 4T1 cells is “significantly less effective in sensitizing the cells to RT”.
On to `C#Cc1cccc(Nc2ncnc3cc(OCCOC)c(OCCOC)cc23)c1` [erlotinib, Erlotinib], for which the “tumor growth, response to RT” value in the assay with BR45 PDX is “did not improve the results of the treatment”.
